This assay concerns the target T1, human liver GK (Homo sapiens, UniProt P35557).
T1 construct: GST (glutathione S-transferase) (N); made in house; host or cells: E. coli
T1 sequence (P35557 1-466 isoform P35557-2): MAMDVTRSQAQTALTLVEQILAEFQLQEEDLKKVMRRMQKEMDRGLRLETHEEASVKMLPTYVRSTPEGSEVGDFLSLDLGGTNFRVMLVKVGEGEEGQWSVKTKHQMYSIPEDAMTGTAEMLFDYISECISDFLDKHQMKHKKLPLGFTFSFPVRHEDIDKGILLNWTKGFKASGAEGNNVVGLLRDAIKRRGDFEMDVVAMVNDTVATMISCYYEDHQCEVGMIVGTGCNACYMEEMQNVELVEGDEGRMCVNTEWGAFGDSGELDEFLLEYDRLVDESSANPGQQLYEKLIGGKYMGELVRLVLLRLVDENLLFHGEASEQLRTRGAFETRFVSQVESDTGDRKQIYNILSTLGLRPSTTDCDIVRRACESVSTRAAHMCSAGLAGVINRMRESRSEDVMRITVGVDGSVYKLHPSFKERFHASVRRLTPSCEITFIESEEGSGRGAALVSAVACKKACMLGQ
The assay is described as follows: GK activation test. The following applies: test compound concentration needed to activate 50% of maximum activation ability; 4 mM 14C-labeled glucose, 2 mM ATP, room temperature, 20 minutes. It counts as biochemical. The procedure, abridged:
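GST-tagged human liver GK from E. coli (0.24 μg/well) with 4 mM 14C-glucose, 2 mM ATP in Hepes-KOH pH 7.1, KCl, MgCl2, DTT, 1% DMSO, 20 min room temperature. Labeled glucose 6-phosphate captured on anion resin, eluted and counted. EC50 = concentration giving half of maximal activation.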

Drawing on US8822503B2, “2-pyridone compounds” (Taisho Pharmaceutical Co., Ltd, priority 2009, dated 2014), this text covers EC50 for 29 molecules.

Each structure is given as a SMILES string.

By EC50 is commonly meant the concentration at which the effect is half-maximal. On to `CC(C)NC(=O)Nc1ccc(/C(=C\[C@H]2CCC(=O)N2)c2ccc(Cl)c(=O)[nH]2)cc1` [Example 4-156, 1-(4-{(E)-1-(5-Chloro-6-oxo-1,6-dihydropyridin-2-yl)-2-[(2R)-5-oxopyrrolidin-2-yl]ethenyl}phenyl)-3-propan-2-ylurea], for which the EC50 was 3000 to 10000 nM.

The molecule `CS(=O)(=O)c1cc(/C(=C\[C@H]2CCC(=O)N2)c2ccc(Cl)c(=O)[nH]2)ccc1C(F)F` [Example 4-157, 3-Chloro-6-{(E)-1-[4-(difluoromethyl)-3-(methylsulfonyl)phenyl]-2-[(2R)-5-oxopyrrolidin-2-yl]ethenyl}pyridin-2(1H)-one] yielded an EC50 of 3000 to 10000 nM.

Molecule `C[S+]([O-])c1ccc(/C(=C\[C@H]2CCC(=O)N2)c2ccc(Cl)c(=O)[nH]2)cc1` (stereo partly drawn) [Example 4-158, 3-Chloro-6-{(E)-1-[4-(methylsulfinyl)phenyl]-2-[(2R)-5-oxopyrrolidin-2-yl]ethenyl}pyridin-2(1H)-one] came in with an EC50 of 3000 to 10000 nM.

Take `CNC(=O)c1ccc(/C(=C\[C@H]2CCC(=O)N2)c2ccc(Cl)c(=O)[nH]2)cc1` [Example 4-159, 4-{(E)-1-(5-Chloro-6-oxo-1,6-dihydropyridin-2-yl)-2-[(2R)-5-oxopyrrolidin-2-yl]ethenyl}-N-methylbenzamide]: the EC50 was in the range of 3000 to 10000 nM. The molecule `NC(=O)c1ccc(/C(=C\[C@H]2CCC(=O)N2)c2ccc(Cl)c(=O)[nH]2)cc1` [Example 4-160, 4-{(E)-1-(5-Chloro-6-oxo-1,6-dihydropyridin-2-yl)-2-[(2R)-5-oxopyrrolidin-2-yl]ethenyl}benzamide] had a half-maximal effective concentration (EC50) of 3000 to 10000 nM. Take `CN(C)C(=O)c1ccc(/C(=C\[C@H]2CCC(=O)N2)c2ccc(Cl)c(=O)[nH]2)cc1` [Example 4-161, 4-{(E)-1-(5-Chloro-6-oxo-1,6-dihydropyridin-2-yl)-2-[(2R)-5-oxopyrrolidin-2-yl]ethenyl}-N,N-dimethylbenzamide]: the EC50 lay within 3000 to 10000 nM.

`CC(C)(C)c1ccc(/C(=C\[C@H]2CCC(=O)N2)c2ccc(Cl)c(=O)[nH]2)c(O)c1` [Example 4-162, 6-{(E)-1-(4-tert-Butyl-2-hydroxyphenyl)-2-[(2R)-5-oxopyrrolidin-2-yl]ethenyl}-3-chloropyridin-2(1H)-one] yielded an EC50 of 10 to 500 nM. Molecule `CC(=O)Nc1cccc(/C(=C\[C@H]2CCC(=O)N2)c2ccc(Cl)c(=O)[nH]2)c1` [Example 4-163, N-(3-{(E)-1-(5-Chloro-6-oxo-1,6-dihydropyridin-2-yl)-2-[(2R)-5-oxopyrrolidin-2-yl]ethenyl}phenyl)acetamide] had an EC50 of 3000 to 10000 nM. The molecule `CC(C)(C)c1ccc(/C(=C\[C@H]2CCC(=O)N2)c2ccc(OC(F)F)c(=O)[nH]2)cc1` [Example 4-165, 6-{(E)-1-(4-tert-Butylphenyl)-2-[(2R)-5-oxopyrrolidin-2-yl]ethenyl}-3-(difluoromethoxy)pyridin-2(1H)-one] yielded an EC50 of 10 to 500 nM. The value for `CC(C)Oc1ccc(/C(=C/[C@H]2CCC(=O)N2)c2ccc(C(C)(C)C)cc2)[nH]c1=O` [Example 4-166, 6-{(E)-1-(4-tert-Butylphenyl)-2-[(2R)-5-oxopyrrolidin-2-yl]ethenyl}-3-(propan-2-yloxy)pyridin-2(1H)-one] was 500 to 3000 nM; that for `CCCOc1ccc(/C(=C/[C@H]2CCC(=O)N2)c2ccc(C(C)(C)C)cc2)[nH]c1=O` [Example 4-167, 6-{(E)-1-(4-tert-Butylphenyl)-2-[(2R)-5-oxopyrrolidin-2-yl]ethenyl}-3-propoxypyridin-2(1H)-one] was 500 to 3000 nM; that for `O=C1CC[C@H](/C=C(\c2ccc(C(F)(F)F)cc2)c2ccc(OC3CCCC3)c(=O)[nH]2)N1` [Example 4-168, 3-(Cyclopentyloxy)-6-{(E)-2-[(2R)-5-oxopyrrolidin-2-yl]-1-[4-(trifluoromethyl)phenyl]ethenyl}pyridin-2(1H)-one] was 500 to 3000 nM.

Molecule `O=C1CC[C@H](/C=C(\c2ccc(Cl)cc2)c2ccc(OCCCO)c(=O)[nH]2)N1` [Example 4-169, 6-{(E)-1-(4-Chlorophenyl)-2-[(2R)-5-oxopyrrolidin-2-yl]ethenyl}-3-(3-hydroxypropoxy)pyridin-2(1H)-one] displayed an EC50 of 3000 to 10000 nM.

On to `O=C1CC[C@H](/C=C(\c2ccc(C(F)(F)F)cc2)c2ccc(OCCCO)c(=O)[nH]2)N1` [Example 4-170, 3-(3-Hydroxypropoxy)-6-{(E)-2-[(2R)-5-oxopyrrolidin-2-yl]-1-[4-(trifluoromethyl)phenyl]ethenyl}pyridin-2(1H)-one], for which the EC50 fell in the range of 3000 to 10000 nM. As for `CC(C)(CO)COc1ccc(/C(=C/[C@H]2CCC(=O)N2)c2ccc(C(F)(F)F)cc2)[nH]c1=O` [Example 4-171, 3-(3-Hydroxy-2,2-dimethylpropoxy)-6-{(E)-2-[(2R)-5-oxopyrrolidin-2-yl]-1-[4-(trifluoromethyl)phenyl]ethenyl}pyridin-2(1H)-one], the EC50 lay within 3000 to 10000 nM. The value for `O=C1CC[C@H](/C=C(\c2ccc(C(F)(F)F)cn2)c2ccc(C3CC3)c(=O)[nH]2)N1` [Example 4-172, 3-Cyclopropyl-6-{(Z)-2-[(2R)-5-oxopyrrolidin-2-yl]-1-[5-(trifluoromethyl)pyridin-2-yl]ethenyl}pyridin-2(1H)-one] was 500 to 3000 nM; that for `CC(C)(C)c1ccc(/C(=C\[C@H]2CCC(=O)N2)c2ccc(N)c(=O)[nH]2)cc1` [Example 4-173, 3-Amino-6-{(E)-1-(4-tert-butylphenyl)-2-[(2R)-5-oxopyrrolidin-2-yl]ethenyl}pyridin-2(1H)-one] was 500 to 3000 nM; that for `CN(C)c1ccc(/C(=C/[C@H]2CCC(=O)N2)c2ccc(C(C)(C)C)cc2)[nH]c1=O` [Example 4-174, 6-{(E)-1-(4-tert-Butylphenyl)-2-[(2R)-5-oxopyrrolidin-2-yl]ethenyl}-3-(dimethylamino)pyridin-2(1H)-one] was 10 to 500 nM. In turn, `CC(=O)c1ccc(/C(=C/[C@H]2CCC(=O)N2)c2ccc(C(C)(C)C)cc2)[nH]c1=O` [Example 4-175, 3-Acetyl-6-{(E)-1-(4-tert-butylphenyl)-2-[(2R)-5-oxopyrrolidin-2-yl]ethenyl}pyridin-2(1H)-one] returned an EC50 of 500 to 3000 nM. As for `CCc1ccc(/C(=C/[C@H]2CCC(=O)N2)c2ccc(C(C)(C)C)cc2)[nH]c1=O` [Example 4-176, 6-{(E)-1-(4-tert-Butylphenyl)-2-[(2R)-5-oxopyrrolidin-2-yl]ethenyl}-3-ethylpyridin-2(1H)-one], the EC50 is 10 to 500 nM.

As for `CC(C)(C)c1ccc(/C(=C\[C@H]2CCC(=O)N2)c2ccc(Br)c(=O)[nH]2)cc1` [Example 4-177, 3-Bromo-6-{(E)-1-(4-tert-butylphenyl)-2-[(2R)-5-oxopyrrolidin-2-yl]ethenyl}pyridin-2(1H)-one], the EC50 was in the range of 10 to 500 nM. The value for `CC(C)(C)c1ccc(/C(=C\[C@H]2CCC(=O)N2)c2ccc(-c3ccccc3)c(=O)[nH]2)cc1` [Example 4-178, 6-{(E)-1-(4-tert-Butylphenyl)-2-[(2R)-5-oxopyrrolidin-2-yl]ethenyl}-3-phenylpyridin-2(1H)-one] was 10 to 500 nM. As to `CC(C)(C)c1ccc(/C(=C\[C@H]2CCC(=O)N2)c2ccc(-c3ccncc3)c(=O)[nH]2)cc1` [Example 4-179, 6-{(E)-1-(4-tert-Butylphenyl)-2-[(2R)-5-oxopyrrolidin-2-yl]ethenyl}-3,4′-bipyridin-2(1H)-one], the EC50 fell in the range of 10 to 500 nM. The value for `CC(C)(C)c1ccc(/C(=C\[C@H]2CCC(=O)N2)c2ccc(-c3cccnc3)c(=O)[nH]2)cc1` [Example 4-180, 6-{(E)-1-(4-tert-Butylphenyl)-2-[(2R)-5-oxopyrrolidin-2-yl]ethenyl}-3,3′-bipyridin-2(1H)-one] was 10 to 500 nM; that for `Cc1nc(C)c(-c2ccc(/C(=C/[C@H]3CCC(=O)N3)c3ccc(C(C)(C)C)cc3)[nH]c2=O)s1` [Example 4-181, 6-{(E)-1-(4-tert-Butylphenyl)-2-[(2R)-5-oxopyrrolidin-2-yl]ethenyl}-3-(2,4-dimethyl-1,3-thiazol-5-yl)pyridin-2(1H)-one] was 500 to 3000 nM; that for `CC(C)Cn1cc(-c2ccc(/C(=C/[C@H]3CCC(=O)N3)c3ccc(C(C)(C)C)cc3)[nH]c2=O)cn1` [Example 4-182, 6-{(E)-1-(4-tert-Butylphenyl)-2-[(2R)-5-oxopyrrolidin-2-yl]ethenyl}-3-[1-(2-methylpropyl)-1H-pyrazol-4-yl]pyridin-2(1H)-one] was 500 to 3000 nM. `Cn1cc(-c2ccc(/C(=C/[C@H]3CCC(=O)N3)c3ccc(C(C)(C)C)cc3)[nH]c2=O)cn1` [Example 4-183, 6-{(E)-1-(4-tert-Butylphenyl)-2-[(2R)-5-oxopyrrolidin-2-yl]ethenyl}-3-(1-methyl-1H-pyrazol-4-yl)pyridin-2(1H)-one]: the EC50 was in the range of 10 to 500 nM.

`CC(C)(C)c1ccc(/C(=C\[C@H]2CCC(=O)N2)c2ccc(-c3cnoc3)c(=O)[nH]2)cc1` [Example 4-184, 6-{(E)-1-(4-tert-Butylphenyl)-2-[(2R)-5-oxopyrrolidin-2-yl]ethenyl}-3-(1,2-oxazol-4-yl)pyridin-2(1H)-one] showed an EC50 of 10 to 500 nM. `CC(C)(C)c1ccc(/C(=C\[C@H]2CCC(=O)N2)c2ccc(Oc3ccccc3)c(=O)[nH]2)cc1` [Example 4-185, 6-{(E)-1-(4-tert-Butylphenyl)-2-[(2R)-5-oxopyrrolidin-2-yl]ethenyl}-3-phenoxypyridin-2(1H)-one] had an EC50 of 10 to 500 nM.
